Assay results as given in patent US5846755A (priority 1995, dated 1998).
Where two headings read alike, the source gives them in different places. Square brackets hold non-standard residues; d marks the D form. Peptide text beside a SMILES is read from it. * marks the point of attachment. Pip = O=C(O)[C@@H]1CCCCN1; Cbz = O=C(OCc1ccccc1)*

Experiments:
[1] = target: neutrophil collagenase (recombinant human) (Homo sapiens, UniProt P22894); test: In vitro assays on recombinant human collagenase; assay type: biochemical
Chain of neutrophil collagenase (recombinant human) (P22894 101-467): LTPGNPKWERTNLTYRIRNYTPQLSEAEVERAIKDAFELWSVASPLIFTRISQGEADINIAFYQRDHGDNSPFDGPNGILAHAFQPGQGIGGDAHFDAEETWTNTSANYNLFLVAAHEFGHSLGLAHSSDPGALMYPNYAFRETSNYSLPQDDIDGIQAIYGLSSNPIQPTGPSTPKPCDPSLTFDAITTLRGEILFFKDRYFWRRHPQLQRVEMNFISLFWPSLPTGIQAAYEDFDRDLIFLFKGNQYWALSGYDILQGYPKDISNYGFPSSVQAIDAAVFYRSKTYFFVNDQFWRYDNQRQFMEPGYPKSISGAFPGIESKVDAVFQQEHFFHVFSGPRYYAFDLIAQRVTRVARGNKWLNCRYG
Procedure: Using the same enzymatic determination already described (fluorimetric detection of cleavage of a substrate peptide containing a fluorescent moiety), some of the compounds were tested on neutrophil collagenase, an enzyme described as participating in any kind of inflammatory reaction in mammalian bodies. In this case, the purified enxzyme was also obtained by recombinant means.

[2] = target: T1, recombinant human gelatinase A (Homo sapiens, UniProt P08253); test: In vitro effects on recombinant human gelatinase A; assay type: biochemical
T1 construct: purchased Strangeways Laboratories, Cambridge, UK
T1 sequence (P08253 110-660): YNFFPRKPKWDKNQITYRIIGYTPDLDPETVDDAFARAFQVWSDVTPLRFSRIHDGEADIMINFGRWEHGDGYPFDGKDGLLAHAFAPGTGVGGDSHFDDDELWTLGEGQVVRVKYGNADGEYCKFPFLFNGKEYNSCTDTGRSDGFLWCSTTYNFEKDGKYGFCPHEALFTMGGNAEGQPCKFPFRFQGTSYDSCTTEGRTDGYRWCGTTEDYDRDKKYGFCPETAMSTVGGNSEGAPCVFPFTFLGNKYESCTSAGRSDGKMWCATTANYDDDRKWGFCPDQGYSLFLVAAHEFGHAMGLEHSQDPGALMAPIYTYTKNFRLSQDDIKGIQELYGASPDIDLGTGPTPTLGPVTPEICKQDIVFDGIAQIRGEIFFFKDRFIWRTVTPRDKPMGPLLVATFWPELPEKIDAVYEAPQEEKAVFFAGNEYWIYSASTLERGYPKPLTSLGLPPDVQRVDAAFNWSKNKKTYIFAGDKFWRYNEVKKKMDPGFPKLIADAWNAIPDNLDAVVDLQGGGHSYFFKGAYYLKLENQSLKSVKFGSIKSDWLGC
Description: Assays on human gelatinase A, an enzyme released in high concentration by any kind of tumor cells during the process of metastatization, and recognized also as a product of stimulated cells in many pathological processes, have been performed using the protein obtained by recombinant biotechnology (Strangeways Laboratories, Cambridge, UK). The enzymatic activity has been followed over time, measuring the amount of fluorescent substrate cleaved by the enzyme, in the presence or absence of synthetic compounds (Perkin Elmer L50 B fluorimeter).

[3] = target: enzyme purified from the venom of Crotalus Adamanteus (hemorrhagin) (Crotalus adamanteus, UniProt P34179); assay type: biochemical
Chain of enzyme purified from the venom of Crotalus Adamanteus (hemorrhagin) (P34179 whole entry, looked up): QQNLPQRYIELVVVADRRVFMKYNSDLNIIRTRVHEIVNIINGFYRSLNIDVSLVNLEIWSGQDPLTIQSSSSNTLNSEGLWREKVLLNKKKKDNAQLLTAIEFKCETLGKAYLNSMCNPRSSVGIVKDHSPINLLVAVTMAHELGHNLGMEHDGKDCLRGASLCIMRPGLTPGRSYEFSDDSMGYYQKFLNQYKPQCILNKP

[4] = Resistance to proteolytic activity in stomach juices (rat stomach homogenate, HPLC); conditions: 37° C.
Procedure: To check if the compounds of the present invention are resistant to proteolytic activity in stomach juices and, therefore, could be administered orally, the stomachs of fasting rats were homogenized in physiological solutions (1:1). 300 microliters of solutions of the compounds (1 mg/ml of saline) were incubated with 0.5 ml of stomach homogenates (37° C.).

[5] = tested on: human melanoma cell line VMM-5; test: Matrigel-based invasion assay with human melanoma cells; assay type: cell-based; conditions: Concentration 500 micro M, VMM-5 cells, 20 hours
Description: In order to obtain information about the possible interference of the synthesized compounds on the ability of tumor cells to migrate through the body (metastatization), the human melanoma cell line VMM-5 was used in the matrigel-based invasion assay, in which basal membrane matrigel (Becton Dickinson) and tissue culture inserts with 8 microns pore size in 24 well tissue culture plates were used as Boyden chambers. The chambers were coated with diluted matrigel and allowed to dry overnight; they were then reconstituted with serum free medium, and melanoma cells (4,000,000/ml) were dispensed in each insert. In the lower chambers, a chemoattractant was included. The chambers were finally placed in a humidified CO2 incubator at 37° C., and incubated for 20 hours. The inserts were dried and the cells on the upper surface removed. The polycarbonate filters were fixed with methanol, stained with hematoxylin and eosin, and counted with a microscope. Inhibition of migration due to compounds has been expressed as a percentage of the total number of migrated cells in the control chambers containing only the buffer in which the compounds were dissolved.

[6] = target: T2, recombinant human gelatinase B (Homo sapiens, UniProt P14780); test: In vitro effects on recombinant human gelatinase B; assay type: biochemical
T2 construct: purchased Stangeways Laboratories, Cambridge, UK (so in the source)
T2 sequence (P14780 94-707): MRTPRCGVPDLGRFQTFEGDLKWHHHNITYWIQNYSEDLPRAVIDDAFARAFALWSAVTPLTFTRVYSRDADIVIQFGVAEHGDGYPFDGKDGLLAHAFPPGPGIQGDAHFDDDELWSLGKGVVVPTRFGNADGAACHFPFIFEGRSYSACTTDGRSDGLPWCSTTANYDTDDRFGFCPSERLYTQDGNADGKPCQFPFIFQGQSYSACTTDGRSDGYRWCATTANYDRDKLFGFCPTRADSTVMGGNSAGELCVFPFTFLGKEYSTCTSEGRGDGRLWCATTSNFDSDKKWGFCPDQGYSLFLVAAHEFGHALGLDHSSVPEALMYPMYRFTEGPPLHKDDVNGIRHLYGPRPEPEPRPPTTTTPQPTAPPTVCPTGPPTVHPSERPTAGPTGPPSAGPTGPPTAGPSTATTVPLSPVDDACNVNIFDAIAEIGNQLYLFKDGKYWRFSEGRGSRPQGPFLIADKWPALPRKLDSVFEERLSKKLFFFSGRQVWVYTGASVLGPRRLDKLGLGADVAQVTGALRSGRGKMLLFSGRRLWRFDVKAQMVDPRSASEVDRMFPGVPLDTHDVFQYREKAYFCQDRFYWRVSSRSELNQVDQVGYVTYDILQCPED
Procedure: Assays on human gelatinase B, another enzyme released by tumor cells, were performed using also, in this case, the protein obtained by recombinant biotechnology Stangeways Laboratories, Cambridge, UK). As usual, the enzymatic activity was followed over time, measuring the amount of fluorescent substrate cleaved by the enzyme, in the presence or absence of synthetic compounds (Perkin Elmer L50 B fluorimeter).

2-FUR--(L)--Phe--(S)--Cyt--OH [Compound 11]
% Inhibition ([1]; Concentration 2.2 × 10^-5 M): 27% | % Inhibition ([2]; Concentration 8.7 × 10^-7 M): 40% | IC50 ([3]; read-out: IC50): 53 nM | Residue after 60 Minutes [4]: 100% | Residue after 120 Minutes [4]: > 95%

COc1ccc2c(c1)C(CC(=O)NC(CC(C)C)C(=O)N1Cc3[nH]c4ccccc4c3CC1C(=O)O)CC2=O (mixture of isomers) [Compound 23, 5-MIA--(L)--Leu--(S)--Cyt--OH]
% Inhibition ([2]; Concentration 8.0 × 10^-7 M): 40% | IC50 ([3]; read-out: IC50): 75 nM

COc1ccc2[nH]c(C(=O)N[C@@H](CC3CCCCC3)C(=O)N3Cc4[nH]c5ccccc5c4C[C@H]3C(=O)O)cc2c1 [Compound 1, 5--MIC--Cha--(S)--Cyt--OH]
inhibition at 0.7 µM ([2]; Concentration 7.0 × 10^-7 M): 25% | IC50 [3]: 29 nM

CC(C)C[C@H](NC(=O)CSc1ncccn1)C(=O)N1Cc2[nH]c3ccccc3c2C[C@H]1C(=O)O [Compound 2, 2-PMTA--(L)--Leu--(S)--Cyt--OH]
IC50 ([3]; read-out: IC50): 230 nM

CC(C)C[C@H](NC(=O)CSc1ccncc1)C(=O)N1Cc2[nH]c3ccccc3c2C[C@H]1C(=O)O [Compound 3, 4-PTA--(L)--Leu--(S)--Cyt--OH]
% Inhibition of Invasion [5]: 69% | IC50 ([3]; read-out: IC50): 360 nM | Residue after 60 Minutes [4]: 100% | Residue after 120 Minutes [4]: > 95%

CC(C)C[C@H](NC(=O)c1nccnc1N)C(=O)N1Cc2[nH]c3ccccc3c2C[C@H]1C(=O)O [Compound 4, 3-APZC--(L)--Leu--(S)--Cyt--OH]
IC50 ([3]; read-out: IC50): 57 nM

COc1cccc2cc(C(=O)N[C@@H](CC(C)C)C(=O)N3Cc4[nH]c5ccccc5c4C[C@H]3C(=O)O)oc12 [Compound 5, 7-MBF--(L)--Leu--(S)--Cyt--OH]
IC50 ([3]; read-out: IC50): 94 nM

COc1cc(C(=O)N[C@@H](CC(C)C)C(=O)N2Cc3[nH]c4ccccc4c3C[C@H]2C(=O)O)nc2ccccc12 [Compound 6, 4-MQC--(L)--Leu--(S)--Cyt--OH]
IC50 ([3]; read-out: IC50): 50 nM

CC(C)C[C@H](NC(=O)c1cc2cc(O)ccc2[nH]1)C(=O)N1Cc2[nH]c3ccccc3c2C[C@H]1C(=O)O [Compound 7, 5-HIC--(L)--Leu--(S)--Cyt--OH]
IC50 ([3]; read-out: IC50): 23 nM

COc1ccc2[nH]c(C(=O)N[C@@H](Cc3ccccc3)C(=O)N3Cc4[nH]c5ccccc5c4C[C@H]3C(=O)O)cc2c1 [Compound 8, 5-MIC--(L)--Phe--(S)--Cyt--OH]
IC50 ([3]; read-out: IC50): 100 nM

CC(C)C[C@H](NC(=O)[C@@H](N)CCO)C(=O)N1Cc2[nH]c3ccccc3c2C[C@H]1C(=O)O [Compound 12, (L)--HomoSer--(L)--Leu--(S)--Cyt--OH]
IC50 ([3]; read-out: IC50): 5000 nM

CC(C)C[C@H](NC(=O)c1ccoc1)C(=O)N1Cc2[nH]c3ccccc3c2C[C@H]1C(=O)O [Compound 13, 3-Furoyl--(L)--Leu--(S)--Cyt--OH]
% Inhibition ([2]; Concentration 9.4 × 10^-7 M): 41% | IC50 ([3]; read-out: IC50): 400 nM

COc1ccc2[nH]c(C(=O)N[C@@H](Cc3c[nH]c4ccccc34)C(=O)N3Cc4[nH]c5ccccc5c4C[C@H]3C(=O)O)cc2c1 [Compound 14, 5-MIC--(L)--Trp--(S)--Cyt--OH]
% Inhibition ([2]; Concentration 6.0 × 10^-7 M): 37% | IC50 ([3]; read-out: IC50): 47 nM

CC(C)C[C@H](NC(=O)c1ccc2ccccc2n1)C(=O)N1Cc2[nH]c3ccccc3c2C[C@H]1C(=O)O [Compound 16, 2-QIC--(L)--Leu--(S)--Cyt--OH]
% Inhibition ([6]; Concentration 1.0 × 10^-5 M): 51% | % Inhibition ([2]; Concentration 8.0 × 10^-7 M): 23% | IC50 ([3]; read-out: IC50): 28 nM

COc1ccc2[nH]c(C(=O)N[C@@H](CC(C)C)C(=O)N3Cc4[nH]c5ccccc5c4C[C@H]3C(=O)O)cc2c1 [Compound 17, 5-MIC--(L)--Leu--(S)--Cyt--OH]
IC50 [3]: 23 nM

COc1ccccc1CC(=O)N[C@@H](CC(C)C)C(=O)N1Cc2[nH]c3ccccc3c2C[C@H]1C(=O)O [Compound 19, 2-MPA--(L)--Leu--(S)--Cyt--OH]
IC50 ([3]; read-out: IC50): 260 nM

CCOc1ccccc1C(=O)N[C@@H](CC(C)C)C(=O)N1Cc2[nH]c3ccccc3c2C[C@H]1C(=O)O [Compound 20, 2-EBZ--(L)--Leu--(S)--Cyt--OH]
IC50 ([3]; read-out: IC50): 130 nM

Cc1cnc(C(=O)N[C@@H](CC(C)C)C(=O)N2Cc3[nH]c4ccccc4c3C[C@H]2C(=O)O)cn1 [Compound 21, 5-MPZ--(L)--Leu--(S)--Cyt--OH]
% Inhibition ([6]; Concentration 5.5 × 10^-6 M): 43% | IC50 ([3]; read-out: IC50): 44 nM

COc1ccc(C(=O)N[C@@H](CC(C)C)C(=O)N2Cc3[nH]c4ccccc4c3C[C@H]2C(=O)O)c(OC)c1 [Compound 24, 2,4-Dimethoxybenzoyl--(L)--Leu--(S)--Cyt--OH]
% Inhibition ([6]; Concentration 1.0 × 10^-5 M): 48% | % Inhibition ([1]; Concentration 2.0 × 10^-5 M): 19% | % Inhibition of Invasion [5]: 100% | IC50 ([3]; read-out: IC50): 98 nM

CC(C)C[C@H](NC(=O)c1ccc([N+](=O)[O-])cc1)C(=O)N1Cc2[nH]c3ccccc3c2C[C@H]1C(=O)O [Compound 26, 4-NBZ--(L)--Leu--(S)--Cyt--OH]
IC50 ([3]; read-out: IC50): 95 nM | Residue after 60 Minutes [4]: 100% | Residue after 120 Minutes [4]: > 95%

CC(C)C[C@H](NC(=O)c1ccc(Cl)cc1)C(=O)N1Cc2[nH]c3ccccc3c2C[C@H]1C(=O)O [Compound 27, 4-CBZ--(L)--Leu--(S)--Cyt--OH]
% Inhibition ([1]; Concentration 2.1 × 10^-5 M): 28% | IC50 ([3]; read-out: IC50): 100 nM

CC(C)C[C@H](NC(=O)c1cccnc1)C(=O)N1Cc2[nH]c3ccccc3c2C[C@H]1C(=O)O [Compound 28, 3-NIC--(L)--Leu--(S)--Cyt--OH]
IC50 ([3]; read-out: IC50): 100 nM

CC(C)C[C@H](NC(=O)c1ccncc1)C(=O)N1Cc2[nH]c3ccccc3c2C[C@H]1C(=O)O [Compound 29, 4-NIC--(L)--Leu--(S)--Cyt--OH]
IC50 ([3]; read-out: IC50): 400 nM

COc1ccc(C(=O)N[C@@H](CC(C)C)C(=O)N2Cc3[nH]c4ccccc4c3C[C@H]2C(=O)O)cc1OC [Compound 30, 3,4-DMB--(L)--Leu--(S)--Cyt--OH]
IC50 ([3]; read-out: IC50): 380 nM | Residue after 60 Minutes [4]: 100% | Residue after 120 Minutes [4]: > 95%

O=C(N[C@@H](Cc1c[nH]c2ccccc12)C(=O)N1Cc2[nH]c3ccccc3c2C[C@H]1C(=O)O)c1ccco1 [Compound 34, 2-FUR--(L)--Trp--(S)--Cyt--OH]
IC50 ([3]; read-out: IC50): 400 nM

NC(=O)C[C@H](NC(=O)c1ccco1)C(=O)N1Cc2[nH]c3ccccc3c2C[C@H]1C(=O)O [Compound 35, 2-FUR--(L)--Asn--(S)--Cyt--OH]
IC50 ([3]; read-out: IC50): 8000 nM

O=C(NCCCC[C@H](NC(=O)c1ccco1)C(=O)N1Cc2[nH]c3ccccc3c2C[C@H]1C(=O)O)OCC1c2ccccc2-c2ccccc21 [Compound 36, 2-FUR--(L)--Lys(Fmoc)--(S)--Cyt--OH]
IC50 ([3]; read-out: IC50): 100 nM

CC(C)C[C@H](NC(=O)c1cccc2ccccc12)C(=O)N1Cc2[nH]c3ccccc3c2C[C@H]1C(=O)O [Compound 37, 1-NAF--(L)--Leu--(S)--Cyt--OH]
IC50 ([3]; read-out: IC50): 210 nM

CC(C)C[C@H](NC(=O)c1ccc[nH]1)C(=O)N[C@@H](Cc1c[nH]c2ccccc12)C(=O)O [Pirr--Leu--Trp]
% Inhibition ([1]; Concentration 1.1 × 10^-5 M): 15% | % Inhibition ([2]; Concentration 9.0 × 10^-6 M): 33%

CC(C)C[C@H](NC(=O)c1cccs1)C(=O)N[C@@H](Cc1c[nH]c2ccccc12)C(=O)O [Tiof--Leu--Trp]
% Inhibition ([2]; Concentration 8.0 × 10^-6 M): 60%

CC(C)C[C@H](NC(=O)[C@@H]1CCCCN1C(=O)OCc1ccccc1)C(=O)N[C@@H](Cc1c[nH]c2ccccc12)C(=O)O [Z--Pip--Leu--Trp] (Cbz-[Pip]-Leu-Trp-OH)
% Inhibition ([2]; Concentration 9.0 × 10^-6 M): 63%

BZS--(L)--Phe--(S)--Cyt--OH [Compound 32]
% Inhibition ([6]; Concentration 1.0 × 10^-5 M): 42% | IC50 ([3]; read-out: IC50): 2000 nM

MePro--Ala--Cyt
% Inhibition ([2]; Concentration 9.0 × 10^-6 M): 39%

MePro--Leu--Cyt
% Inhibition ([6]; Concentration 1.1 × 10^-5 M): 37% | % Inhibition of Invasion [5]: 40%
